The values below come from US20240043410A1, “SULPHAMOYL UREA DERIVATIVES CONTAINING ALKYL-OXACYCLOALKYL MOIETY AND USES THEREOF” (NodThera Limited, priority 2020, published 2024).

≈ marks a conversion by molar mass, not a printed value. Structures can show the parent of a compound that is named as a salt. Some results are limits rather than exact numbers.

Data set [1] concerns P-glycoprotein (P-gp) or breast cancer resistance protein (BCRP). Description: BCRP and P-gp Caco-2 permeability assay. The data set is classed as in vitro ADME. The settings on record: efflux ratio, Caco-2 cells. The procedure:
BCRP and P-gp Caco-2 Studies. The compounds of the present disclosure were tested in a Caco-2 permeability assay to assess whether they are actively transported out of cells by the efflux proteins, P-glycoprotein (P-gp) or breast cancer resistance protein (BCRP).
Caco-2 cells were used between passage numbers 40-60. Cells were seeded onto Millipore Multiscreen Transwell plates at […]. The cells were cultured in DMEM and media was changed every two or three days. On Day 18-22 the BCRP inhibition study was performed. Cell culture and assay incubations were carried out at 37° C. in an atmosphere of 5% CO2 with a relative humidity of 95%. On the day of the assay, the monolayers were prepared by rinsing both apical and basolateral surfaces twice with warmed (37° C.) transport buffer (Hanks Balanced Salt Solution [HBSS] containing 25 mM HEPES and 4.45 mM glucose, pH 7.4). Cells were then incubated with transport buffer containing test compound or positive control inhibitor (novobiocin) in both apical and basolateral compartments for 30 minutes at 37° C. For the inhibition studies a P-gp inhibitor or BCRP inhibitor was included on both sides of the monolayer for the equilibration period. The dosing solutions were prepared by diluting estrone 3-sulfate and test compound where applicable to give a final estrone 3-sulfate concentration of 1 μM (final DMSO concentration of 1% v/v). The fluorescent integrity marker lucifer yellow was prepared in receiver solutions in vehicle or test compound-containing transport buffer. After pre-incubation, the transport buffer was removed from both apical and basolateral compartments and replaced with the appropriate dosing or receiver solution. For assessment of B-A permeability, transport buffer was removed from the basolateral companion plate and replaced with dosing solution. Fresh transport buffer containing lucifer yellow and test compound where applicable (final DMSO concentration 1% v/v) was added to the apical compartment insert, which was then placed into the companion plate. After a 90-minute incubation the apical compartment inserts and the companion plates were separated and compartments sampled for analysis. Seven concentrations of compound (up to 100 μM) were assessed in addition to a vehicle control (0 μM). A triplicate determination of each concentration was performed. The positive control inhibitor was evaluated in parallel. [^3H]-estrone 3-sulfate was quantified by liquid scintillation counting to give disintegrations per minute (dpm). The integrity of the monolayer throughout the experiment was checked by monitoring lucifer yellow permeation using fluorimetric analysis. Corrected B-A apparent permeability (Papp) of probe substrate was calculated by subtracting its mean passive Papp determined in the presence of the highest concentration of positive control inhibitor (giving 100% transporter inhibition). The mean corrected B-A Papp from vehicle wells (0 μM test compound) was defined as 100% transport activity and this value was then used to calculate the percentage control transport activity for all other test compound concentrations. Percentage control transport activity was plotted against test compound concentration and fitted to calculate an IC50 value.
The efflux ratio (ER) values of compounds of the present disclosure are shown in Table B below (“****” means <3; “***” 3≥ and <10; “**” means ≥10 and <30; “*” means ≥30).
Background: Caco-2 cells form a polarised layer with tight junctions and transporters.

The nature of data set [2]: Thermodynamic (equilibrium) solubility assay. The settings on record: aqueous buffer, thermodynamic from solid; 50 mM pH 7.4 phosphate buffer, 24 hours at room temperature. The data set is classed as physicochemical. How it is done: Thermodynamic Solubility Studies. The compounds of the present disclosure were tested in an equilibrium solubility assay.
An appropriate amount of test and control compounds were weighed into lower chambers of Whatman Mini-UniPrep vials. To these were added 50 mM pH 7.4 phosphate buffer (450 μL) to get a super-saturated suspension. The samples were vortexed for at least 2 minutes. The Whatman Mini-UniPrep vials were shaken on a shaker for 24 hours at room temperature at 800 rpm. The vials were centrifuged for 20 minutes (eg. 4000 rpm). Samples were compressed to prepare filtrates for injection into HPLC system and the concentration calculated with a standard curve. […] As shown in the table, compounds of the present disclosure may display improved properties (e.g., over the compounds in the prior art), such as enhanced potency, solubility, membrane permeability and transporter efflux.

A short description of another data set: PAMPA permeability assay. The data set is classed as in vitro ADME. The settings on record: 10 μM donor, PBS, 4 hours at room temperature, lecithin/dodecane membrane. How it is done: PAMPA Studies. The compounds of the present disclosure were tested in a PAMPA permeability assay to assess passive transcellular permeation.
Protocol. 0.2 mM working solution was prepared by diluting 10 mM stock solution with DMSO. 10 μM donor solution (5% DMSO) was prepared by diluting 20 μL of working solution with 380 μL PBS. 150 μL of 10 μM donor solutions to each well of the donor plate, whose PVDF membrane was precoated with 5 μL of 1% lecithin/dodecane mixture. Duplicates were prepared. 300 μL of PBS was added to each well of the PTFE acceptor plate. The donor plate and acceptor plate were combined and incubated for 4 hours at room temperature with shaking at 300 rpm. Preparation of TO sample: 20 μL donor solution was transferred to new well followed by the addition of 250 μL PBS (DF: 13.5), 130 μL ACN (containing internal standard) as TO sample. Preparation of acceptor sample: The plate was removed from incubator. 270 μL solution was transferred from each acceptor well and mixed with 130 μL ACN (containing internal standard) as acceptor sample. Preparation of donor sample: 20 μL solution was transferred from each donor well and mixed with 250 μL PBS (DF: 13.5), 130 μL ACN (containing internal standard) as donor sample. Acceptor samples and donor samples were all analysed by LC-MS/MS.
The measured PAMPA permeability values of compounds of the present disclosure are shown in Table B below (“$$$$” means >10 nm/“$$$” means ≥3 and <10 nm/s; “$$” means ≥1 and <3 nm/s; “$” means <1 nm/s).
(In general: The PAMPA barrier holds no transporters, so it reflects passive diffusion.)

For data set [3], the system named is IL-1β release upon NLRP3 activation in peripheral blood mononuclear cells (PBMC). Description: PBMC IC50 Determination Assay. Format: cell-based. The settings on record: Homo sapiens; LPS-primed PBMC stimulated with ATP (5 mM) or nigericin (10 μM); IL-1β by ELISA (Protocol A) or HTRF (Protocol B); salts tested. The procedure: PBMC IC50 Determination Assay. The compounds of the present disclosure were tested for their inhibitory activity against IL-1β release upon NLRP3 activation in peripheral blood mononuclear cells (PBMC).
Protocol A. PBMC were isolated from buffy coats by density gradient centrifugation on Histopaque-1077 (Sigma, cat no. 10771). Isolated cells were seeded into the wells of a 96-well plate and incubated for 3 h with lipopolysaccharide (LPS). Following medium exchange, the compounds of the present disclosure were added (a single compound per well) and the cells were incubated for 30 min. Next, the cells were stimulated either with ATP (5 mM) or nigericin (10 μM) for 1 h and the cell culture media from the wells were collected for further analysis. The release of IL1-β into the media was determined by a quantitative detection of IL-1β in the media using an IL-1β enzyme-linked immunosorbent assay (ELISA) Ready-SET-Go!, eBioscience cat. No. 88-7261-88. Briefly, in a first step, high affinity binding plates (Corning, Costar 9018 or NUNC Maxisorp Cat No. 44-2404) were coated overnight at 4° C. with specific capture antibody included in the kit (anti-human IL-1β ref. 14-7018-68). Subsequently, plates were blocked with blocking buffer for 1 h at room temperature (rt) and after washing with a buffer (PBS with 0.05% Tween-20) incubated with protein standard and culture media. After 2 h of incubation at rt, plates were washed and incubated with biotinylated detection antibody included in the kit (anti-human IL-1β Biotin ref. 33-7110-68) for 1 h at rt. Plates were washed and incubated with HRP-streptavidin for 30 min at rt and washed again. The signal was developed after addition of 3,3′,5,5′-tetramethylbenzidine-peroxidase (TMB) until colour appeared and the reaction was stopped by 2 M H2SO4. A microplate spectrophotometer (BioTek) was used to detect signals with 450 nm. The detection range of IL-1β 3 ELISA was 2-150 ng/mL.
Protocol B. PBMC were isolated from buffy coats by density gradient centrifugation on Histopaque-1077 (Sigma, cat no. 10771). Isolated cells were seeded into the wells (280,000 cells/well) of a 96-well plate and incubated for 3 h with lipopolysaccharide (LPS, 1 μg/mL diluted 1000× from a 1 mg/mL stock solution). The compounds of the present disclosure were added (a single compound per well) and the cells were incubated for 30 min. Next, the cells were stimulated with ATP (5 mM final concentration diluted 20× from a 100 mM stock solution) for 1 h and the cell culture media from the wells were collected for further analysis. The release of IL-1β into the media was determined by quantitative detection of IL-1 in the media using HTRF®, CisBio cat. No. 62HIL1BPEH. Briefly, cell culture supernatant were dispensed directly into the assay plate containing antibodies labelled with the HTRF® donor and acceptor. A microplate spectrophotometer (BMG) was used to detect signals at 655 nm and 620 nm. The detection range of IL-1β HTRF® was […].
For orientation: ELISA stands for enzyme-linked immunosorbent assay.

One may read the thermodynamic solubility as the concentration in solution at equilibrium with solid. By IC50 is commonly meant the point on the concentration scale where inhibition reaches its midpoint. Take `Cn1cc(N(CC2CCCCO2)S(=O)(=O)NC(=O)Nc2c3c(cc4c2CCC4)CCC3)cn1` (stereo not drawn) [Compound 6, Sodium [(1,2,3,5,6,7-hexahydro-s-indacen-4-yl)carbamoyl][(1-methyl-1H-pyrazol-4-yl)[(oxan-2-yl)methyl]sulfamoyl]azanide]: the “Caco-2 ER” value in data set [1] was “**** (“****” means <3)”. The compound further gave a solubility (thermodynamic) at 24 h in data set [2] of 3000 to 10000 µg/mL. In the data set “PAMPA permeability assay”, the “PAMPA Pe” value was “$$$$ (“$$$$” means >10 nm/)”. Moreover, in data set [3], the IC50 is < 100 nM.
Take `Cn1cc(N(CC2CCCO2)S(=O)(=O)NC(=O)Nc2c3c(cc4c2CCC4)CCC3)cn1` (stereo not drawn) [Compound 1]: the IC50 in data set [3] is < 100 nM.
`Cn1cc(N(C[C@@H]2CCCO2)S(=O)(=O)NC(=O)Nc2c3c(cc4c2CCC4)CCC3)cn1` [Compound 1A, Sodium [(1,2,3,5,6,7-hexahydro-s-indacen-4-yl)carbamoyl][(1-methyl-1H-pyrazol-4-yl)({[(2S)-oxolan-2-yl]methyl})sulfamoyl]azanide]: the “Caco-2 ER” value in data set [1] was “**** (“****” means <3)”. For the same compound, the solubility (thermodynamic) at 24 h in data set [2] is 3000 to 10000 µg/mL. For the same compound, the “PAMPA Pe” value in the data set “PAMPA permeability assay” is “$$ (“$$” means ≥1 and <3 nm/s)”. Besides, the IC50 in data set [3] is < 100 nM.
As for `Cn1cc(N(C[C@@H]2C[C@H](O)CO2)S(=O)(=O)NC(=O)Nc2c3c(cc4c2CCC4)CCC3)cn1` (relative stereo) [Compound 2A, Sodium ((1,2,3,5,6,7-hexahydro-s-indacen-4-yl)carbamoyl)(N-((cis-4-hydroxy-tetrahydrofuran-2-yl)methyl)-N-(1-methyl-1H-pyrazol-4-yl)sulfamoyl)amide], the IC50 in data set [3] is < 100 nM.
As for `Cn1cc(N(CCC2CCCO2)S(=O)(=O)NC(=O)Nc2c3c(cc4c2CCC4)CCC3)cn1` (stereo not drawn) [Compound 5, Sodium [(1,2,3,5,6,7-hexahydro-s-indacen-4-yl)carbamoyl][(1-methyl-1H-pyrazol-4-yl)[2-(oxolan-2-yl)ethyl]sulfamoyl]azanide], the “Caco-2 ER” value in data set [1] is “*** (“***” 3≥ and <10)”. The solubility (thermodynamic) at 24 h in data set [2] is 3000 to 10000 µg/mL. In addition, in “PAMPA permeability assay”, the “PAMPA Pe” value is “$$ (“$$” means ≥1 and <3 nm/s)”. Besides, the IC50 in data set [3] lay within 100 to 1000 nM.
For `Cn1cc(N(CC2CCOC2)S(=O)(=O)NC(=O)Nc2c3c(cc4c2CCC4)CCC3)cn1` (stereo not drawn) [Compound 4], in data set [1], the “Caco-2 ER” value is “** (“**” means ≥10 and <30)”. This compound also had a solubility (thermodynamic) at 24 h in data set [2] of 1000 to 3000 µg/mL (≈ 2.18 to 6.53 mM). In addition, the “PAMPA Pe” value in the data set “PAMPA permeability assay” is on record as “$ (“$” means <1 nm/s)”. For the same compound, the half-maximal inhibitory concentration (IC50) in data set [3] is 100 to 1000 nM.
Regarding `O=C(Nc1c2c(cc3c1CCC3)CCC2)NS(=O)(=O)N(C[C@@H]1CCCO1)c1cn[nH]c1` [Compound 8A, 1-(1,2,3,5,6,7-hexahydro-s-indacen-4-yl)-3-[1H-pyrazol-4-yl-[[(2S)-tetrahydrofuran-2-yl]methyl]sulfamoyl]urea], the half-inhibitory concentration (IC50) in data set [3] is < 100 nM.
For `Cn1cc(N(C[C@H]2CCCO2)S(=O)(=O)NC(=O)Nc2c3c(cc4c2CCC4)CCC3)cn1` [Compound 1B, Sodium [(1,2,3,5,6,7-hexahydro-s-indacen-4-yl)carbamoyl][(1-methyl-1H-pyrazol-4-yl)({[(2R)-oxolan-2-yl]methyl})sulfamoyl]azanide], in data set [1], the “Caco-2 ER” value was “**** (“****” means <3)”. Also, the thermodynamic solubility at 24 h in data set [2] was 1000 to 3000 µg/mL. For the same compound, the “PAMPA Pe” value in the data set “PAMPA permeability assay” was “$$ (“$$” means ≥1 and <3 nm/s)”. The IC50 in data set [3] is < 100 nM.
Turning to `Cn1cc(N(C[C@H]2C[C@H](O)CO2)S(=O)(=O)NC(=O)Nc2c3c(cc4c2CCC4)CCC3)cn1` [Compound 2B, 1-(1,2,3,5,6,7-Hexahydro-s-indacen-4-yl)-3-[[(2R,4S)-4-hydroxytetrahydro-furan-2-yl]methyl-(1-methylpyrazol-4-yl)sulfamoyl]urea, sodium salt], in data set [3], the half-maximal inhibitory concentration (IC50) is 100 to 1000 nM.
